Starred links: 1 amine or outer side, 2 acyl side, 3 side chain; linkers in the order of their positions; H or OH if unused. Positions of bridges follow the written chain, without caps; N, C: chain ends. Non-standard residues stand in square brackets, D forms with d. Residues, ends and D or L forms follow the SMILES beside them. X1 = O=C([C@]1(CC=[*:3])CCCN1[*:1])[*:2]; αAllylPro = C=CC[C@@]1(C(=O)O)CCCN1; Ala(cPr) = N[C@@H](CC1CC1)C(=O)O; S5 = C=CCCC[C@](C)(N)C(=O)O
Assays:
[1] = PAMPA
in vitro = test: in vitro; design: dose or concentration left out as unconfirmed; details: PAMPA, pH 7.4, PAMPA Pe
[2] = CHI Log D measurement (chromatographic hydrophobicity index)
Method: Finally, to measure hydrophobicity, a CHI Log D measurement assay was employed. […] The retention time measurements were performed using reverse-phase HPLC and Q-Exactive mass spectrometer with Phenomenex Gemini C-18 column (3 uM, 50×3 mm). The reverse-phase chromatography was performed using a gradient of 10 mM ammonium acetate at pH=7.4 and acetonitrile solvents. Using the identical solvent setup, gradient, and flowrate, ProLock stapled peptides were injected onto the column to determine the tR of peptides. Using the calibration curve shown in FIG. 7, tR is converted into CHI. CHI was converted into CHI Log D using the following equation.

[3] = reverse-phase HPLC, Phenomenex Gemini C-18 column, pH 7.4
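Throughout, for % Retention: Phospholipid-membrane PAMPA, donor and acceptor in DPBS pH 7.4 with 5% DMSO, 37 °C for 5 h, compound in each well quantified by reverse-phase HPLC-MS.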
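Throughout, for Papp: Phospholipid-membrane PAMPA, donor and acceptor in DPBS pH 7.4 with 5% DMSO, 37 °C for 5 h, compound in each well quantified by reverse-phase HPLC-MS.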

| % Retention [1] [%] | Papp at 5 h (in vitro) [×10⁻⁶ cm/s] | chromatographic logD ([2]; pH 7.4) | logD ([2]; pH 7.4) | CHI Log D compared to the parent ProLock stapled peptide ([2]; result in words) | chromatographic logD [2, 3] | Structure (SMILES) |
| --- | --- | --- | --- | --- | --- | --- |
| 86 ± 2 | ≤ 0.1 | 3.7 | – | surprisingly high | – | CNC(=O)[C@H](CC(=O)O)NC(=O)[C@H](Cc1c[nH]cn1)NC(=O)[C@H](CC(C)C)NC(=O)[C@H](CC(C)C)NC(=O)[C@H](CCCNC(=N)N)NC(=O)[C@]1(C)CCCC=CC[C@]2(CCCN2)C(=O)N[C@@H](CC(C)C)C(=O)N[C@@H](CC(C)C)C(=O)N1 (single isomer, unassigned) [PLL7-9 variant 1, H-PL3-Leu-Leu-S5-Arg-Leu-Leu-His-Asp-NHMe] |
| 84 ± 2 | 0.3 ± 0.1 | 2.3 | – | – | – | C=CCCC[C@](C)(NC(=O)[C@H](CC(C)C)NC(=O)[C@H](CC1CC1)NC(=O)[C@]1(CC=C)CCCN1C(C)=O)C(=O)N[C@@H](Cc1ccc(O)cc1)C(=O)N[C@@H](CC(C)C)C(=O)N[C@@H](CC(C)C)C(=O)N[C@@H](CCC(N)=O)C(=O)N[C@@H](CC(=O)O)C(=O)NC [PLL7-7 variant 5, Ac-PL3-Cpa-Leu-S5-Tyr-Leu-Leu-Gln-Asp-NHMe] (Ac-[αAllylPro][Ala(cPr)]L[S5]YLLQD-NHMe) |
| 76 ± 10 | 0.5 ± 0.2 | 2.1 | – | – | – | CC(=O)N1CCC[C@]12CC=CCCC[C@@](C)(C(=O)N[C@@H](Cc1c[nH]cn1)C(=O)N[C@@H](CC(C)C)C(=O)N[C@@H](CC(C)C)C(=O)N[C@@H](CC(N)=O)C(N)=O)NC(=O)[C@H](CC(C)C)NC(=O)[C@H](C)NC2=O (single isomer, unassigned) [PLL7-20 variant 3, Ac-PL3-Ala-Leu-S5-His-Leu-Leu-Asn-NH2] |
| 98 ± 10 | 0.5 ± 0.1 | 1.9 | – | – | – | CC(=O)N1CCC[C@]12CC=CCCC[C@@](C)(C(=O)N[C@@H](CCCNC(=N)N)C(=O)N[C@@H](CC(C)C)C(=O)N[C@@H](CC(C)C)C(=O)N[C@@H](Cc1c[nH]cn1)C(=O)N[C@@H](CC(=O)O)C(N)=O)NC(=O)[C@H](CC(C)C)NC(=O)[C@H](CC(C)C)NC2=O (single isomer, unassigned) [PLL7-9 variant 3, Ac-PL3-Leu-Leu-S5-Arg-Leu-Leu-His-Asp-NH2] |
| 103 ± 2 | 0.9 ± 0.2 | 2.6 | – | – | – | CNC(=O)[C@H](CC(N)=O)NC(=O)[C@H](CC(N)=O)NC(=O)[C@H](CC(C)C)NC(=O)[C@H](CC(C)C)NC(=O)[C@H](CC1CC1)NC(=O)[C@]1(C)CCCC=CC[C@]2(CCCN2C(C)=O)C(=O)N[C@@H](C)C(=O)N[C@@H](CC(C)C)C(=O)N1 (single isomer, unassigned) [PLL7-11, Ac-PL3-Ala-Leu-S5-Cpa-Leu-Leu-Asn-Asn-NHMe] |

More lines, now with the values behind:

| Structure (SMILES) | % Retention [1] [%] | Papp at 5 h (in vitro) [×10⁻⁶ cm/s] | chromatographic logD ([2]; pH 7.4) | logD ([2]; pH 7.4) | CHI Log D compared to the parent ProLock stapled peptide ([2]; result in words) | chromatographic logD [2, 3] |
| --- | --- | --- | --- | --- | --- | --- |
| C=CCCC[C@](C)(NC(=O)[C@H](CC(C)C)NC(=O)[C@H](CCCCN)NC(=O)[C@]1(CC=C)CCCN1C(C)=O)C(=O)N[C@@H](CC(N)=O)C(=O)N[C@@H](CC(C)C)C(=O)N[C@@H](CC(C)C)C(=O)N[C@H](C(=O)N[C@@H](Cc1ccc(O)cc1)C(=O)NC)[C@@H](C)O [PLL4-5 variant 5, Ac-PL3-Lys-Leu-S5-Asn-Leu-Leu-Thr-Tyr-NHMe] (Ac-[αAllylPro]KL[S5]NLLTY-NHMe) | 73 ± 4 | ≤ 0.1 | 2.3 | – | – | – |
| CNC(=O)[C@H](CC(=O)O)NC(=O)[C@H](CC(=O)O)NC(=O)[C@H](CC(C)C)NC(=O)[C@H](CC(C)C)NC(=O)[C@H](Cc1ccc(O)cc1)NC(=O)[C@]1(C)CCCC=CC[C@]2(CCCN2)C(=O)N[C@@H](CC(C)C)C(=O)N[C@@H](CC(C)C)C(=O)N1 (single isomer, unassigned) [PLL5-2 variant 1, H-PL3-Leu-Leu-S5-Tyr-Leu-Leu-Asp-Asp-NHMe] | 69 ± 2 | 0.4 ± 0.1 | 1.4 | – | – | – |
| CNC(=O)[C@H](CC(=O)O)NC(=O)[C@H](CCC(N)=O)NC(=O)[C@H](CC(C)C)NC(=O)[C@H](CC(C)C)NC(=O)[C@H](Cc1ccc(O)cc1)NC(=O)[C@]1(C)CCCC=CC[C@]2(CCCN2)C(=O)N[C@@H](CC2CC2)C(=O)N[C@@H](CC(C)C)C(=O)N1 (single isomer, unassigned) [PLL7-7 variant 1, H-PL3-Cpa-Leu-S5-Tyr-Leu-Leu-Gln-Asp-NHMe] | 84 ± 2 | 0.4 ± 0.1 | 1.8 | – | – | – |
| CNC(=O)[C@H](CC(=O)O)NC(=O)[C@H](CC(=O)O)NC(=O)[C@H](CC(C)C)NC(=O)[C@H](CC(C)C)NC(=O)[C@H](Cc1ccc(O)cc1)NC(=O)[C@]1(C)CCCC=CC[C@]2(CCCN2C(C)=O)C(=O)O[C@@H](CC(C)C)C(=O)N[C@@H](CC(C)C)C(=O)N1 (single isomer, unassigned) [PLL5-2 variant 2, Ac-PL3-Lec-Leu-S5-Tyr-Leu-Leu-Asp-Asp-NHMe] | 47 ± 6 | ≤ 0.1 | – | 1.9 | – | – |
| CNC(=O)[C@H](Cc1ccc(O)cc1)NC(=O)[C@H](CCC(N)=O)NC(=O)[C@H](CC(C)C)NC(=O)[C@H](CC(C)C)NC(=O)[C@H](Cc1ccc(O)cc1)NC(=O)[C@]1(C)CCCC=CC[C@]2(CCCN2C(C)=O)C(=O)N[C@@H](CC(C)C)C(=O)N[C@@H](CC(C)C)C(=O)N1 [PLL5-3, Ac-PL3-Leu-Leu-S5-Tyr-Leu-Leu-Gln-Tyr-NHMe] (Ac-[X1]LL[S5]YLLQY-NHMe; staple 1-4) | 83 ± 1 | ≤ 0.1 | – | – | – | 3.5 |
| C=CCCC[C@](C)(NC(=O)[C@H](CC(C)C)NC(=O)[C@H](CC(C)C)NC(=O)[C@]1(CC=C)CCCN1C(C)=O)C(=O)N[C@@H](Cc1ccc(O)cc1)C(=O)N[C@@H](CC(C)C)C(=O)N[C@@H](CC(C)C)C(=O)N[C@@H](CC(=O)O)C(=O)NC [PLL4-10 variant 5, Ac-PL3-Leu-Leu-S5-Tyr-Leu-Leu-Asp-NHMe] (Ac-[αAllylPro]LL[S5]YLLD-NHMe) | 70 ± 2 | 0.2 ± 0.1 | 2.8 | – | – | – |
| CC(=O)N1CCC[C@]12CC=CCCC[C@@](C)(C(=O)N[C@@H](CC(N)=O)C(=O)N[C@@H](CC(C)C)C(=O)N[C@@H](CC(C)C)C(=O)N[C@H](C(=O)N[C@@H](Cc1ccc(O)cc1)C(N)=O)[C@@H](C)O)NC(=O)[C@H](CC(C)C)NC(=O)[C@H](CCCCN)NC2=O (single isomer, unassigned) [PLL4-5 variant 3, Ac-PL3-Lys-Leu-S5-Asn-Leu-Leu-Thr-Tyr-NH2] | 78 ± 8 | 0.4 ± 0.1 | 1.6 | – | – | – |
| CNC(=O)[C@H](CCC(N)=O)NC(=O)[C@H](CC(C)C)NC(=O)[C@H](CC(C)C)NC(=O)[C@H](Cc1ccc(O)cc1)NC(=O)[C@]1(C)CCCC=CC[C@]2(CCCN2C(C)=O)C(=O)N[C@@H](CC(C)C)C(=O)N[C@@H](CC(C)C)C(=O)N1 [PLL5-12, Ac-PL3-Leu-Leu-S5-Tyr-Leu-Leu-Gln-NHMe] (Ac-[X1]LL[S5]YLLQ-NHMe; staple 1-4) | 97 ± 1 | ≤ 0.1 | – | – | – | 3.2 |
| CNC(=O)[C@H](CC(=O)O)NC(=O)[C@H](CC(C)C)NC(=O)[C@H](CC(C)C)NC(=O)[C@H](Cc1ccc(O)cc1)NC(=O)[C@]1(C)CCCC=CC[C@]2(CCCN2)C(=O)N[C@@H](CC(C)C)C(=O)N[C@@H](CC(C)C)C(=O)N1 (single isomer, unassigned) [PLL4-10 variant 1, H-PL3-Leu-Leu-S5-Tyr-Leu-Leu-Asp-NHMe] | 66 ± 2 | 0.3 ± 0.1 | 2.2 | – | – | – |
| CNC(=O)[C@H](CC(=O)O)NC(=O)[C@H](CC(C)C)NC(=O)[C@H](CC(C)C)NC(=O)[C@H](Cc1ccc(O)cc1)NC(=O)[C@]1(C)CCCC=CCCC[C@](C)(NC(C)=O)C(=O)N[C@@H](C)C(=O)N[C@@H](CC(C)C)C(=O)N[C@@H](CC(C)C)C(=O)N1 [PLL4-10 variant 4, Ac-S5-Ala-Leu-Leu-S5-Tyr-Leu-Leu-Asp-NHMe] (Ac-[S5]ALL[S5]YLLD-NHMe; staple 1-5) | 74 ± 6 | ≤ 0.1 | 2.9 | – | – | – |
| CNC(=O)[C@H](CC(=O)O)NC(=O)[C@H](CCC(N)=O)NC(=O)[C@H](CC(C)C)NC(=O)[C@H](CC(C)C)NC(=O)[C@H](Cc1ccc(O)cc1)NC(=O)[C@]1(C)CCCC=CC[C@]2(CCCN2C(C)=O)C(=O)O[C@@H](CC(C)C)C(=O)N[C@@H](CC(C)C)C(=O)N1 (single isomer, unassigned) [PLL7-7 variant 2, Ac-PL3-Lec-Leu-S5-Tyr-Leu-Leu-Gln-Asp-NHMe] | 64 ± 1 | ≤ 0.1 | 2.6 | – | – | – |
| CNC(=O)[C@H](CC(=O)O)NC(=O)[C@H](CCC(N)=O)NC(=O)[C@H](CC(C)C)NC(=O)[C@H](CC(C)C)NC(=O)[C@H](Cc1ccc(O)cc1)NC(=O)[C@]1(C)CCCC=CCCC[C@](C)(NC(C)=O)C(=O)N[C@@H](C)C(=O)N[C@@H](CC2CC2)C(=O)N[C@@H](CC(C)C)C(=O)N1 [PLL7-7 variant 4, Ac-S5-Ala-Cpa-Leu-S5-Tyr-Leu-Leu-Gln-Asp-NHMe] (Ac-[S5]A[Ala(cPr)]L[S5]YLLQD-NHMe; staple 1-5) | 75 ± 1 | ≤ 0.1 | 2.4 | – | – | – |

From patent publication US20230357320A1, “HELICAL STAPLED PEPTIDES AND USES THEREOF” (FOG PHARMACEUTICALS, INC., priority 2020, published 2023)
